Consider two molecules from EP0934745B1, “Use of androsterone derivatives for inhibiting DNA binding of ap-1 and airway smooth muscle proliferation” (CHARLOTTE-MECKLENBURG HOSPITAL doing business as Carolinas …, priority 1998, dated 1999).

As a reminder, the inhibition is the change of the read-out against control, counted positive when it falls.

Each structure is given as a SMILES string.

In test [1] the target is T1, glucose-6-phosphate dehydrogenase (G6PDH) (Rattus norvegicus, UniProt P05370).
T1 construct: endogenous in cells; host or cells: primary rat tracheal (airway) smooth muscle cells
T1 sequence (P05370 whole entry): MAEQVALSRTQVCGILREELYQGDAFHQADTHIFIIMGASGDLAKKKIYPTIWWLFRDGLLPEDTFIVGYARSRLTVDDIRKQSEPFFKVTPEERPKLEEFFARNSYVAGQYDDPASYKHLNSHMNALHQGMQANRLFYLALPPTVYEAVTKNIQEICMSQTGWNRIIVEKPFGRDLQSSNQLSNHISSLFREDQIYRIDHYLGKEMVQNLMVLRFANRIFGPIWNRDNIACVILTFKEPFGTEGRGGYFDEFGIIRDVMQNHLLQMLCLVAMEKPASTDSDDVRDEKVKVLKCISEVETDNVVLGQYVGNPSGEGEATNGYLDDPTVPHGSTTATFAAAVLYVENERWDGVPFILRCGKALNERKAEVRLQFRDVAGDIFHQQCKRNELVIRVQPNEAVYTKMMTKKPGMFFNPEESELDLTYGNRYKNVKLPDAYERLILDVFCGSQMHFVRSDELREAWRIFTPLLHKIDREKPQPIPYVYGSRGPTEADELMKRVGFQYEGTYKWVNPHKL
Put plainly: G6PDH activity in airway smooth muscle cell lysates, inhibitors added to the lysate. It counts as biochemical. The conditions noted are these: 100 µl, read-out: PERCENT INHIBITION OF GLUCOSE 6-PHOSPHATE DEHYDROGENASE ACTIVITY
As for the experimental part: (§1) After 1 hour cells were lysed and G6PDH activity was assayed as described below. In other experiments, G6PDH activity was measured in cell lysates prepared from untreated confluent cultures and treated in vitro with DHEA or 16α-BrEA added to the reaction mixture in 5 µl DMSO. […] Ribonucleosides or deoxyribonucleosides were dissolved in 0.5 ml of 1 N HCl and added to DMEM. The pH of the medium was adjusted to 7.1 by titration with 1 N NaOH, and medium was then sterilized by passage through a […] filter. Growth was measured by MTT reduction after 24, 48 and 96 hours.
To determine if DHEA or its analogs induced programmed cell death, confluent cultures in 6 well plastic plates were treated with 50 or 250 µM DHEA, 10 or 50 µM 16α-BrEA, or vehicle (25 µl DMSO). After 2 hours cells were washed twice with DPBS and scraped on ice into 1.5 ml microfuge tubes and centrifuged 250 g for 5 minutes at 4°C. The cell pellet was gently resuspended in 30 µl DPBS and lysed by addition of 30 µl lysis buffer (80 mM EDTA, 1.6% [wt/vol] sodium lauryl sarcosinate and 5 mg/ml proteinase K in 200 mM Tris-HCl buffer, pH 8.0). Lysate was incubated at 50°C for 1.5 hours. RNAse A (0.2 mg/ml) was added and the lysate was incubated for another 30 minutes at 37°C. DNA bands were separated along with a DNA ladder standard on a 1% agarose gel at 60 V for 1 hour, intercalated with ethidium bromide, and visualized and photographed under ultraviolet light. Measurement of Glucose-6-Phosphate Dehydrogenase Activity. Cultures were washed three times with cold DPBS on ice, scraped into ice cold buffer (10 mM MgCl2 in 50 mM Tris, pH 8.0) and sonicated on ice. G6PDH activity was then assayed by the method of Jones and Andrews (Jones, J.T., and Andrews, S.G., "Glucose-6-phosphate dehydrogenase activity in somatic and germinal cells of the mouse testis," J. Reproduc. Fertility, 54, 357-362 (1978)) in a reaction mixture containing 50-200 µl cell lysate, 20 µl of 10 mM β-nicotinamide adenine dinucleotide phosphate (NADP) and 20 µl of 10 mM D-glucose-6-phosphate (G6P) in a total volume of 1 ml buffer (10 mM MgCl2 in 50 mM Tris, pH 8.0). The reaction was initiated by addition of G6P. The linear increase in absorbance at 340 nm was monitored at 25°C for 300 seconds. Activity was expressed as units/mg protein, where 1.0 unit will oxidase 1.0 µmole of G6P to 6-phospho-D-gluconate per min in the presence of NADP. Protein was measured using the BCA protein assay (Rockford, IL). Immunoblot Assay for p21^ras and c-fos Proteins. For measurement of p21^ras, cells were washed twice-with cold DPBS and swelled on ice for 15 minutes with 500 µl cold lysis buffer (10 mM HEPES, 1 mM MgCl2, 1 mM EDTA, 1 µM pepstatin, 2 µg/ml aprotinin, and 1 mM phenylmethylsulfonyl fluoride). See Schulz and Nyce (1991), supra. Cells were then scraped into 1.5 ml polypropylene tubes, homogenized and clarified by centrifugation at 3,000 g for 1 minute at 4°C. The postnuclear supernatant was centrifuged 100,000 g for 30 minutes at 4°C. Supernatants were collected and pelleted membranes were resuspended in detergent buffer (1% Triton X-100, 1% sodium deoxycholate, 0.1% SDS, 150 mM NaCl, 1 µM pepstatin, 2 µg/ml aprotinin and 1 mM phenylmethylsulfonyl fluoride in 25 mM Tris, pH 7.4). Aliquots of supernatant and membrane fractions were removed for protein determination using the BCA protein assay. […]
Activity is expressed as % inhibition of DMSO vehicle-treated controls by 16α-bromoepiandrosterone (BrEA) or dehydroepiandrosterone (DHEA). […]

The next test concerns the target T2, Human Erythrocyte G6PDH (Homo sapiens, UniProt P11413).
T2 construct: purified G6PDH from human erythrocytes; purchased Sigma Type XXVI; host or cells: human erythrocytes (natural source)
In words: Inhibition of purified glucose 6-phosphate dehydrogenase activity. The format is biochemical. The note with it: 0.01 U/ml Type XXVI G6PDH from human erythrocytes, vs DMSO vehicle-treated controls, read-out: PERCENT INHIBITION OF GLUCOSE 6-PHOSPHATE DEHYDROGENASE ACTIVITY

For test [2], the target named is T1, glucose-6-phosphate dehydrogenase (G6PDH). Put plainly: G6PDH activity after pretreatment of intact airway smooth muscle monolayers. The format is cell-based. The conditions noted are these: for G6PDH activity of subsequent cell lysates: monolayers pretreated with concentrations that inhibited cell proliferation, result in words. As for the experimental part: as §1
To determine if DHEA or its analogs induced programmed cell death, confluent cultures in 6 well plastic plates were treated with 50 or 250 µM DHEA, 10 or 50 µM 16α-BrEA, or vehicle (25 µl DMSO). After 2 hours cells were washed twice with DPBS and scraped on ice into 1.5 ml microfuge tubes and centrifuged 250 g for 5 minutes at 4°C. The cell pellet was gently resuspended in 30 µl DPBS and lysed by addition of 30 µl lysis buffer (80 mM EDTA, 1.6% [wt/vol] sodium lauryl sarcosinate and 5 mg/ml proteinase K in 200 mM Tris-HCl buffer, pH 8.0). Lysate was incubated at 50°C for 1.5 hours. RNAse A (0.2 mg/ml) was added and the lysate was incubated for another 30 minutes at 37°C. DNA bands were separated along with a DNA ladder standard on a 1% agarose gel at 60 V for 1 hour, intercalated with ethidium bromide, and visualized and photographed under ultraviolet light. Measurement of Glucose-6-Phosphate Dehydrogenase Activity. Cultures were washed three times with cold DPBS on ice, scraped into ice cold buffer (10 mM MgCl2 in 50 mM Tris, pH 8.0) and sonicated on ice. G6PDH activity was then assayed by the method of Jones and Andrews (Jones, J.T., and Andrews, S.G., "Glucose-6-phosphate dehydrogenase activity in somatic and germinal cells of the mouse testis," J. Reproduc. Fertility, 54, 357-362 (1978)) in a reaction mixture containing 50-200 µl cell lysate, 20 µl of 10 mM β-nicotinamide adenine dinucleotide phosphate (NADP) and 20 µl of 10 mM D-glucose-6-phosphate (G6P) in a total volume of 1 ml buffer (10 mM MgCl2 in 50 mM Tris, pH 8.0). The reaction was initiated by addition of G6P. The linear increase in absorbance at 340 nm was monitored at 25°C for 300 seconds. Activity was expressed as units/mg protein, where 1.0 unit will oxidase 1.0 µmole of G6P to 6-phospho-D-gluconate per min in the presence of NADP. Protein was measured using the BCA protein assay (Rockford, IL). Immunoblot Assay for p21^ras and c-fos Proteins. For measurement of p21^ras, cells were washed twice-with cold DPBS and swelled on ice for 15 minutes with 500 µl cold lysis buffer (10 mM HEPES, 1 mM MgCl2, 1 mM EDTA, 1 µM pepstatin, 2 µg/ml aprotinin, and 1 mM phenylmethylsulfonyl fluoride). See Schulz and Nyce (1991), supra. Cells were then scraped into 1.5 ml polypropylene tubes, homogenized and clarified by centrifugation at 3,000 g for 1 minute at 4°C. The postnuclear supernatant was centrifuged 100,000 g for 30 minutes at 4°C. Supernatants were collected and pelleted membranes were resuspended in detergent buffer (1% Triton X-100, 1% sodium deoxycholate, 0.1% SDS, 150 mM NaCl, 1 µM pepstatin, 2 µg/ml aprotinin and 1 mM phenylmethylsulfonyl fluoride in 25 mM Tris, pH 7.4). Aliquots of supernatant and membrane fractions were removed for protein determination using the BCA protein assay. Bromophenol blue and β-mercaptoethanol were added to the remaining sample to a final concentration of 0.002% (wt/vol) and 5% (vol/vol), respectively. Lysates were then boiled for 5 minutes at 100°C and stored at -80°C until immunoblotting was performed.
Activity is expressed as % inhibition of DMSO vehicle-treated controls by 16α-bromoepiandrosterone (BrEA) or dehydroepiandrosterone (DHEA). DMSO alone caused no reduction in G6PDH activity under assay conditions. Each bar represents the mean of at least 3 experiments. Methods are described in the text. […]

T2 sequence (P11413 whole entry): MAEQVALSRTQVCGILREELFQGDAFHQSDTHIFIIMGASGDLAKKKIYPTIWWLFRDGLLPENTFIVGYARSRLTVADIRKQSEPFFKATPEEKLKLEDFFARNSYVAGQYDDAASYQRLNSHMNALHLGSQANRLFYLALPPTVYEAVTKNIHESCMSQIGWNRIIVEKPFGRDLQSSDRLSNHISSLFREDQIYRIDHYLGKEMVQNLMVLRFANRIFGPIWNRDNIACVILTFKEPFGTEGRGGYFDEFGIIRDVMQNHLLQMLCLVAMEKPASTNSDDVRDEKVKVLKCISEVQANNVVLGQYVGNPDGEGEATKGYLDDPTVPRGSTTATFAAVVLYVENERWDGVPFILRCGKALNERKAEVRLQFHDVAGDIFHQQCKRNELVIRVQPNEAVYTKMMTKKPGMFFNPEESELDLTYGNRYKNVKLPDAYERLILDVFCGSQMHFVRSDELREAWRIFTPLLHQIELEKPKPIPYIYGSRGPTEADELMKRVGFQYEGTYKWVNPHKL

Regarding `C[C@]12CC[C@H](O)C[C@@H]1CC[C@@H]1[C@@H]2CC[C@]2(C)C(=O)[C@H](Br)C[C@@H]12` [16α-BrEA, 16α-bromoepiandrosterone], the inhibition at 25 µM turned out to be 49% in test [1] and 47 ± 6% on Human Erythrocyte G6PDH (25 µM). Further, the inhibition at 50 µM in test [1] worked out at 71 ± 8%; on Human Erythrocyte G6PDH (50 µM), 57 ± 9%. For the same molecule, the “G6PDH activity of subsequent cell lysates” value in test [2] is recorded as “not significantly reduced”.
Turning to `C[C@]12CC[C@H](O)CC1=CC[C@@H]1[C@@H]2CC[C@]2(C)C(=O)CC[C@@H]12` [DHEA, dehydroepiandrosterone], the inhibition at 25 µM amounted to 77 ± 3% in test [1] and 0% in test [2] (25 µM, Intact Airway Smooth Muscle monolayers pretreated 1 hour before harvest, read-out: PERCENT INHIBITION OF GLUCOSE 6-PHOSPHATE DEHYDROGENASE ACTIVITY). For the same molecule, the inhibition at 50 µM came to 82 ± 3% in test [1] and 0% in test [2] (50 µM, Intact Airway Smooth Muscle monolayers pretreated 1 hour before harvest, read-out: PERCENT INHIBITION OF GLUCOSE 6-PHOSPHATE DEHYDROGENASE ACTIVITY). Moreover, the inhibition at 100 µM was found to be 93 ± 3% in test [1] (100 µM) and 6 ± 7% in test [2] (100 µM, Intact Airway Smooth Muscle monolayers pretreated 1 hour before harvest, read-out: PERCENT INHIBITION OF GLUCOSE 6-PHOSPHATE DEHYDROGENASE ACTIVITY). Further, the inhibition at 250 µM in test [2] (250 µM, Intact Airway Smooth Muscle monolayers pretreated 1 hour before harvest, read-out: PERCENT INHIBITION OF GLUCOSE 6-PHOSPHATE DEHYDROGENASE ACTIVITY) turned out to be 24 ± 9%. Also, the “G6PDH activity of subsequent cell lysates” value in test [2] is on record as “not significantly reduced”.
